# Assay results published in patent publication US20250263408A1 (Uniquest Pty Ltd, priority 2022, published 2025).
# Experiments:
# Syk = target: T1, Syk (Homo sapiens, UniProt P43405); test: Syk Biochemical Assay (ADP-Glo luminescence); conditions: ATP 40 μM final, 60 minutes, read-out: SYK Biochem IC50
# T1 construct: purchased Promega
# Description: Compounds were serially diluted in 100% DMSO, prior to an intermediate dilution in water. In a low volume white 384-well Proxiplate (Perkin Elmer), 1 μL of compound (0.4% final DMSO) was added to 3 μL of 10 ng/well Syk (Promega) and 0.2 mg/mL Poly-E4Y1 substrate (Promega) in assay buffer (final 40 mM Tris-HCl pH 7.4, 20 mM MgCl2, 0.1 mg/mL BSA) for 5 minutes. The reaction was initiated by addition of 1 μL of ATP (40 μM final) and allowed to proceed for 60 minutes at room temperature. The reaction was terminated by addition of 5 μL of ADP-Glo Reagent Mix (Promega) containing 1 mM MgCl2 for 45 minutes at room temperature. 10 μL of Kinase Detection Reagent (Promega) was added and incubated for 10 minutes at room temperature, before luminescence was measured using an Ensight Multimode Plate Reader (Perkin Elmer).
# Ba/F3-Syk cells = target: T2, Ba/F3-Syk cells (Homo sapiens, UniProt P43405); test: Ba/F3 Proliferation Assay, Ba/F3-Syk cells (Resazurin); format: cell-based; conditions: 48-hour incubation
# T2 construct: fused on or other part: Possible but unprinted fusion partner: TEL (ETV6), the usual partner for Ba/F3 lines transformed by Syk; Nothing on a partner is printed
# [1] = system: Ba/F3-WT (wild type) cells; test: Ba/F3 Proliferation Assay, Ba/F3-WT (wild type) cells with mIL-3 (Resazurin); format: cell-based; conditions: Mus musculus, BaF3, 48 h, Ba/F3-WT cells +mIL-3, 48-hour incubation
IC50 (Syk) [nM],EC50 (Ba/F3-Syk cells) [nM],EC50 [1] [nM],SMILES
28.1,30.6,694,"c1cnc2cc(-c3cnn(C4CCC4)c3)nc(OC[C@@H]3CNCCO3)c2c1 [Compound 2.22, 7-(1-cyclobutyl-1H-pyrazol-4-yl)-5-{[(2S)-morpholin-2-yl]methoxy}-1,6-naphthyridine]"
106,440,5800,"c1cnc2cc(-c3cn[nH]c3)nc(OC[C@@H]3CNCCO3)c2c1 [Compound 2.23, 5-{[(2S)-morpholin-2-yl]methoxy}-7-(1H-pyrazol-4-yl)-1,6-naphthyridine]"
23.5,48.4,4760,"Cn1cc(-c2cc3ncccc3c(OC[C@@H]3CNCC(C)(C)O3)n2)cn1 [Compound 2.32, 5-{[(2S)-6,6-dimethylmorpholin-2-yl]methoxy}-7-(1-methyl-1H-pyrazol-4-yl)-1,6-naphthyridine]"
31.9,79.9,2520,"Cn1cc(-c2cc3ncccc3c(OC[C@@H]3CNCC4(CC4)O3)n2)cn1 [Compound 2.43, 7-(1-methyl-1H-pyrazol-4-yl)-5-{[(5S)-4-oxa-7-azaspiro[2.5]octan-5-yl]methoxy}-1,6-naphthyridine]"
9.2,17.8,1480,"CC(C)n1cc(-c2cc3ncccc3c(OC[C@@H]3CNCC(C)(C)O3)n2)cn1 [Compound 2.45, 5-{[(2S)-6,6-dimethylmorpholin-2-yl]methoxy}-7-[1-(propan-2-yl)-1H-pyrazol-4-yl]-1,6-naphthyridine]"
19,65,3430,"CC1(C)CNC[C@@H](COc2nc(-c3cnn(C4CC4)c3)cc3ncccc23)O1 [Compound 2.46, 7-(1-cyclopropyl-1H-pyrazol-4-yl)-5-{[(2S)-6,6-dimethylmorpholin-2-yl]methoxy}-1,6-naphthyridine]"
71,47.1,3050,"CC(C)(C)n1cc(-c2cc3ncccc3c(OC[C@@H]3CNCCCO3)n2)cn1 [Compound 2.49, 7-(1-tert-butyl-1H-pyrazol-4-yl)-5-{[(2S)-1,4-oxazepan-2-yl]methoxy}-1,6-naphthyridine]"
22.1,57.4,9830,"Cn1ccc(-c2cc3ncccc3c(OC[C@@H]3CNCCCO3)n2)c1 [Compound 2.52, 7-(1-methyl-1H-pyrrol-3-yl)-5-{[(2S)-1,4-oxazepan-2-yl]methoxy}-1,6-naphthyridine]"
10,21.6,> 10000,"CC1(C)CNC[C@@H](COc2nc(-c3ccn(C(C)(C)C)c3)cc3ncccc23)O1 [Compound 2.57, 7-(1-tert-butyl-1H-pyrrol-3-yl)-5-{[(2S)-6,6-dimethylmorpholin-2-yl]methoxy}-1,6-naphthyridine]"
9.6,25.4,6710,"CC(C)(C)n1ccc(-c2cc3ncccc3c(OC[C@@H]3CNCCO3)n2)c1 [Compound 2.58, 7-(1-tert-butyl-1H-pyrrol-3-yl)-5-{[(2S)-morpholin-2-yl]methoxy}-1,6-naphthyridine]"
24.6,26.6,4070,"Cn1ccc(-c2cc3ncccc3c(OC[C@@H]3CNCC4(CC4)O3)n2)c1 [Compound 2.60, 7-(1-methyl-1H-pyrrol-3-yl)-5-{[(5S)-4-oxa-7-azaspiro[2.5]octan-5-yl]methoxy}-1,6-naphthyridine]"
26.4,20.6,2870,"CC(C)(C)n1cc(-c2cc3ncccc3c(OC[C@@H]3CNCC4(CC4)O3)n2)cn1 [Compound 2.63, 7-(1-tert-butyl-1H-pyrazol-4-yl)-5-{[(5S)-4-oxa-7-azaspiro[2.5]octan-5-yl]methoxy}-1,6-naphthyridine]"
30.1,13.5,> 10000,"CC(C)(C)n1ccc(-c2cc3ncccc3c(OC[C@@H]3CNCCCO3)n2)c1 [Compound 2.69, 7-(1-tert-butyl-1H-pyrrol-3-yl)-5-{[(2S)-1,4-oxazepan-2-yl]methoxy}-1,6-naphthyridine]"
17.6,44.8,2760,"C[C@@H]1CNC[C@@H](COc2nc(-c3cnn(C)c3)cc3ncccc23)O1 [Compound 2.76, 7-(1-methyl-1H-pyrazol-4-yl)-5-{[(2S,6R)-6-methylmorpholin-2-yl]methoxy}-1,6-naphthyridine]"
28.3,18.6,846,"CC(C)[C@@H]1CNC[C@@H](COc2nc(-c3cnn(C(C)(C)C)c3)cc3ncccc23)O1 [Compound 2.98, 7-(1-tert-butyl-1H-pyrazol-4-yl)-5-{[(2S,6R)-6-(propan-2-yl)morpholin-2-yl]methoxy}-1,6-naphthyridine]"
21.4,17.8,1010,"CC(C)(C)n1cc(-c2cc3ncccc3c(OC[C@@H]3CNC[C@@H](C(F)F)O3)n2)cn1 [Compound 2.99, 7-(1-tert-butyl-1-pyrazol-4-yl)-5-{[(2S,6S)-6-(difluoromethyl)morpholin-2-yl]methoxy}-1,6-naphthyridine]"
278,362,3010,"CC(C)(C)[C@H]1CNC[C@@H](COc2nc(-c3cnn(C(C)(C)C)c3)cc3ncccc23)O1 [Compound 2.100, 7-(1-tert-butyl-1H-pyrazol-4-yl)-5-{[(2S,6S)-6-tert-butylmorpholin-2-yl]methoxy}-1,6-naphthyridine]"
40,25.4,628,"CC(C)(C)[C@@H]1CNC[C@@H](COc2nc(-c3cnn(C(C)(C)C)c3)cc3ncccc23)O1 [Compound 2.101, 7-(1-tert-butyl-1H-pyrazol-4-yl)-5-{[(2S,6R)-6-tert-butylmorpholin-2-yl]methoxy}-1,6-naphthyridine]"
12.9,11.7,1070,"CC(C)(C)n1cc(-c2cc3ncccc3c(OC[C@@H]3CNC[C@H](C4CC4)O3)n2)cn1 [Compound 2.102, 7-(1-tert-butyl-1H-pyrazol-4-yl)-5-{[(2S,6S)-6-cyclopropylmorpholin-2-yl]methoxy}-1,6-naphthyridine]"
30.5,32.7,985,"CC(C)(C)n1cc(-c2cc3ncccc3c(OC[C@@H]3CNC[C@@H](C4CC4)O3)n2)cn1 [Compound 2.103, 7-(1-tert-butyl-1H-pyrazol-4-yl)-5-{[(2S,6R)-6-cyclopropylmorpholin-2-yl]methoxy}-1,6-naphthyridine]"
16.6,33.1,1570,"CC(C)[C@H]1CNC[C@@H](COc2nc(-c3cnn(C(C)(C)C)c3)cc3ncccc23)O1 [Compound 2.104, 7-(1-tert-butyl-1H-pyrazol-4-yl)-5-{[(2S,6S)-6-(propan-2-yl)morpholin-2-yl]methoxy}-1,6-naphthyridine]"
6.21,31.1,1550,"CC(C)(C)n1cc(-c2cc3ncccc3c(OC[C@@H]3CNC[C@H](C(F)F)O3)n2)cn1 [Compound 2.105, 7-(1-tert-butyl-1H-pyrazol-4-yl)-5-{[(2S,6R)-6-(difluoromethyl)morpholin-2-yl]methoxy}-1,6-naphthyridine]"
11.8,23.5,2370,"CC1(C)CNC[C@@H](COc2cc(-c3cnn(C(C)(C)C)c3)cc3ncccc23)O1 [Compound 3.2, 7-(1-tert-butyl-1H-pyrazol-4-yl)-5-{[(2S)-6,6-dimethylmorpholin-2-yl]methoxy} quinoline]"
